Source: publication PMC7504770, “Mechanistic Insights into the Chaperoning of Human Lysosomal-Galactosidase Activity: Highly Functionalized Aminocyclopentanes and C-5a-Substituted Derivatives of 4-epi-Isofagomine” (Molecules, 2020)

Legend:
Assay type in all cases: biochemical
[1] = target: T1, β-glucosidase/β-galactosidase from Agrobacterium sp. (Abg, GH1) (Agrobacterium sp., UniProt P12614); experiment: Ki determination, Agrobacterium sp. β-glucosidase/β-galactosidase (Abg); settings: for Ki: 37 °C, pH 7, substrate pNP β-Gal, read-out: Ki Abg (β-Glc/Gal) (GH1)
T1 sequence (P12614 1-459): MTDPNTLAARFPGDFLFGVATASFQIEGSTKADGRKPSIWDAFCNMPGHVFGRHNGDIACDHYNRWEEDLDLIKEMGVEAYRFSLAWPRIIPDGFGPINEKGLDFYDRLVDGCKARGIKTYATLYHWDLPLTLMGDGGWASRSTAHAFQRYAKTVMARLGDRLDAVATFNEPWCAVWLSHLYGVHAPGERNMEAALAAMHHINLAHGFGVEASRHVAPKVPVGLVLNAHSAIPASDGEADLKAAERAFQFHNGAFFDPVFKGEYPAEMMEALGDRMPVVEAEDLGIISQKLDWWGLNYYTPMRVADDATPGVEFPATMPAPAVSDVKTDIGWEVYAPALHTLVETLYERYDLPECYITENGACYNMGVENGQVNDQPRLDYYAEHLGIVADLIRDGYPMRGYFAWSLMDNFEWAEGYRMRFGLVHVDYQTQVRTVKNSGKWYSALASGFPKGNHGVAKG
Description: (§1) Kinetic studies were performed at 37 °C in an appropriate buffer (specific conditions depicted below). In a typical assay, the enzyme was incubated with different inhibitor concentrations for up to 5 min before initiating the reaction by the addition of substrate. The initial reaction rate was measured by monitoring the increase in absorbance at 400 nm for up to ten minutes using a Cary4000 (Varian, Palo Alto, CA, USA). Ki determinations were performed using at least two different substrate concentrations. For each inhibitor, a range of four to six inhibitor concentrations bracketing the ultimately determined Ki value was used for each substrate concentration. Dixon plots (1/v vs. [I]) were constructed to validate the use of competitive inhibition model. The data were then fit using non-linear regression analysis with Grafit 7.0 [Erithacus Software, UK].
(§2) n.i. stands for no inhibition or weak inhibition with an estimated Ki value higher than 1 mM.
Agrobacterium sp. β-glucosidase: [69, 70] 50 mM sodium phosphate buffer (pH 7).

[2] = target: T2, Fabrazyme = commercial recombinant lysosomal α-galactosidase (GH27) (Homo sapiens, UniProt P06280); experiment: Ki determination, Fabrazyme (acid α-galactosidase); settings: 37 °C, pH 5.5, substrate 2,4-DNP α-Gal
T2 construct: purchased
T2 sequence (P06280 32-429): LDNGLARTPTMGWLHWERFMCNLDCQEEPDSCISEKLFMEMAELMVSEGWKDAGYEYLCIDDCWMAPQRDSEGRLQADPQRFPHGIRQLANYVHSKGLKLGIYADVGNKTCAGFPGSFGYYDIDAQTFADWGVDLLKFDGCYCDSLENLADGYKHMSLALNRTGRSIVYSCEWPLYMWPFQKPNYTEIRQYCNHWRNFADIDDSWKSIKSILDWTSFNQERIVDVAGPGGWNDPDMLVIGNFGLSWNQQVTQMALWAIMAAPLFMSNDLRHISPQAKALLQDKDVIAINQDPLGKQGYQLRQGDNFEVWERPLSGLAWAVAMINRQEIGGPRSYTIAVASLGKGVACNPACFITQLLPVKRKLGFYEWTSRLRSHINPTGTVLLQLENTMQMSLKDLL
Description: as §1, §2
Fabrazyme (Acid α-galactosidase): 20 mM sodium citrate, 50 mM sodium phosphate, 1.0 mM tetrasodium EDTA, 0.25% v/v Triton X-100® and 0.25% w/v taurocholic acid buffer (pH 5.5). Substrate: 2,4-DNP α-Gal, Km = 0.65 mM.

[3] = target: T3, β-galactosidase from bovine liver (GH35) (Bos taurus, UniProt Q58D55); experiment: Ki determination, bovine liver β-galactosidase; settings: for Ki: 37 °C, pH 7, substrate pNP β-Gal; for fold weaker binding than 17, bovine liver β-galactosidase: compared with hydroxylated inhibitor 17
T3 construct: Bovine liver β-galactosidase; from tissue; host or cells: bovine liver
T3 sequence (Q58D55 28-653): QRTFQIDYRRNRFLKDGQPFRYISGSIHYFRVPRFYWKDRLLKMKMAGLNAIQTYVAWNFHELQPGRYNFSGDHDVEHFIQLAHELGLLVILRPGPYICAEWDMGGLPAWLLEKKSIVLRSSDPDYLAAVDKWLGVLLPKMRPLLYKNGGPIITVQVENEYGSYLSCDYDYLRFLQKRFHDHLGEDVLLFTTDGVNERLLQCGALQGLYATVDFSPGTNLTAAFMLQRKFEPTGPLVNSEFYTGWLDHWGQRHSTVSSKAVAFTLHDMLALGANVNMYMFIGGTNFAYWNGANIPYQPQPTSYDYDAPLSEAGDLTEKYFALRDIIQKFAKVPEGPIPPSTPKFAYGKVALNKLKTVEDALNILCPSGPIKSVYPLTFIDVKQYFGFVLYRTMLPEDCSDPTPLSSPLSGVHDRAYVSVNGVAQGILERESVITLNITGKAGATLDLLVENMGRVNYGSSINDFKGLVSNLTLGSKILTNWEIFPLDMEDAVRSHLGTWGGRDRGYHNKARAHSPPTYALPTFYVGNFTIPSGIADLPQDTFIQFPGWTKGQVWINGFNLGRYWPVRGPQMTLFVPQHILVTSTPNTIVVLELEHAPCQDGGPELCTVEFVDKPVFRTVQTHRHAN
Description: as §1, §2
Bovine liver β-galactosidase: 50 mM sodium phosphate buffer (pH 7). Substrate: pNP β-Gal, Km = 0.65 mM.

Row | Structure (SMILES) | Ki [1] [µM] | Ki [2] [µM] | Ki [3] [µM] | fold weaker binding than 17, bovine liver β-galactosidase [3] | binding energy difference to 17, bovine β-galactosidase ([3]; corresponding to the 20 fold Ki difference 31 vs 17) [kcal/mol] | fold weaker binding than 17, GH1 bacterial glycosidase ([1]; compared to inhibitor 17) [fold]
1 | CCCCCCCCNC1C=C(CO)C(O)C(O)C1O (stereo not drawn) [Compound 1, N-octyl-epi-valienamine] | 7.7 | > 1000 |  |  |  | 
2 | CCCCCCCCN[C@H]1[C@H](O)[C@@H](O)[C@@H](O)[C@H]1CO [Compound 16] | 0.001 | > 1000 | 0.117 |  |  | 
3 | CN(C)c1cccc2c(S(=O)(=O)NCCCCCC[C@H]3NC[C@@H](O)[C@@H](O)[C@H]3CO)cccc12 [Compound 22] | 0.0003 | > 1000 | 0.0005 |  |  | 
4 | CN(C)c1cccc2c(S(=O)(=O)NCCCCCCN[C@H]3C[C@@H](O)[C@@H](O)[C@H]3CO)cccc12 [Compound 31, (1R,2S,3R,4S)-3-Hydroxymethyl-4-(6′-dansylaminohexylamino)cyclopentane-1,2-diol] | 0.0035 | > 1000 | 0.102 | ~20 fold | ~2 | 
5 | CN(C)c1cccc2c(S(=O)(=O)NCCCCCCN[C@H]3[C@H](F)[C@@H](O)[C@@H](O)[C@H]3CO)cccc12 [Compound 37, (1S,2S,3S,4R,5R)-4-(6′-Dansylaminohexyl)amino-3-fluoro-5-hydroxymethylcyclopentane-1,2-diol] | 0.077 | > 1000 | 0.137 | more than 12 fold |  | 64
